Results filed as inconclusive are left out. Active and inactive are the calls of the source.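 How the source made its calls: active means compound lowering the normal-ribosome reporter at least twice as much as the humanized-ribosome reporter, growth loss under a set limit; inconclusive means no clear call, values can overlap the other calls; inactive means the rest.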
System: E. coli WT-GFP vs G2058-humanized RFP, fluorescence, 24 h
Experiment: E. coli strain growth, wild-type against G2058 humanized RFP mutant – G2058 mutant RFP vs wild-type GFP, cherry-pick, two tests, dose response (AID 1035470)
[1] = E. coli WT-GFP vs G2058-humanized RFP mixed culture, total growth OD600, 24 h
[2] = measured here: G2058 humanized mutant RFP growth

SMILES: Cc1c(-c2cccc(Cl)c2)nc2ccccc2c1C(=O)N1CCC2(CC1)OCCO2
- AC50: > 100 µM (inactive)

SMILES: COc1ccc(C(=O)C[n+]2ccc3c(c2)nc(-c2cc(OC)c(OC)cc2OC)n3C)cc1
- AC50 [1]: > 100 µM

SMILES: O=C(Nc1cccc2ccccc12)c1ccc([N+](=O)[O-])o1
- AC50: > 100 µM (inactive)
- AC50 [1]: > 100 µM

SMILES: COc1ccc(-c2cc(C(=O)N3CCc4ccccc4C3)no2)cc1
- AC50: > 100 µM (inactive)

SMILES: O=C(Nc1ccc(Cl)cc1)N1C[C@H]2[C@@H](c3ccccc31)[C@@H](CO)N2C(=O)c1ccccn1
- AC50: > 100 µM (inactive)

SMILES: C=CCn1c(C)cc(C(=O)COC(=O)CNC(=O)c2ccccc2)c1C
- AC50: > 100 µM (inactive)

SMILES: N#Cc1c(N)nc(SCc2ccccc2)c(C#N)c1-c1ccco1
- AC50: > 100 µM (inactive)

SMILES: COc1ccc(CC(=O)NCc2csc(-c3cccs3)n2)cc1OC
- AC50: > 100 µM (inactive)

SMILES: Cn1nc(C(C)(C)C)c([N+](=O)[O-])c1C(=O)Nc1ccc(Br)cc1
- AC50: > 100 µM (inactive)

SMILES: CC(=O)OC(COc1cccc(C)c1)Cn1cnc2ccccc21 (stereo not drawn)
- AC50: > 100 µM (inactive)
- AC50 [1]: > 100 µM

SMILES: COC(=O)c1cccc(CN2C(=O)SC(Nc3ccc(C)cc3)C2=O)c1 (stereo not drawn)
- AC50: > 100 µM (inactive)

SMILES: CCOC(=O)C1NN=C(C(=O)c2ccccc2)C1c1ccc(OC)cc1 (stereo not drawn)
- AC50 [1]: > 100 µM

SMILES: CC1CCC2(CC1)SCC(=O)N2c1ccc(F)cc1 (stereo not drawn)
- AC50: > 100 µM (inactive)
- AC50 [1]: > 100 µM
- AC50 [2]: 35.3 µM

SMILES: Cc1csc2c(N3CCC(C(=O)O)CC3)ncnc12
- AC50: > 100 µM (inactive)
- AC50 [1]: > 100 µM
- AC50 [2]: 50.4 µM

SMILES: O=C(C[n+]1ccc(Cc2ccccc2)cc1)Nc1ccc([N+](=O)[O-])cc1Cl
- AC50 [2]: > 100 µM

SMILES: O=C(c1ccc(Cl)cc1)N1CCN(c2cccc3[nH]ccc23)CC1
- AC50: > 100 µM (inactive)
- AC50 [1]: > 100 µM

SMILES: COc1ccc(Nc2nc(N)c([N+](=O)[O-])c(N3CCOCC3)n2)cc1
- AC50: > 100 µM (inactive)
- AC50 [1]: > 100 µM

SMILES: O=C(Nc1ccc2c(c1)OCO2)c1ccc([N+](=O)[O-])cc1[N+](=O)[O-]
- AC50: > 100 µM (inactive)

SMILES: O=S(=O)(c1ccc(Cl)cc1)N1CCN=C1SCc1cccc(Cl)c1
- AC50: > 100 µM (inactive)

SMILES: O=C(CN(c1ccc(F)cc1)S(=O)(=O)c1ccccc1)Nc1ccccc1C(=O)O
- AC50 [1]: > 100 µM

SMILES: O=C(Nc1cccc(Cl)c1)N1C[C@H]2[C@@H](c3ccccc31)[C@H](CO)N2Cc1ccncc1
- AC50: > 100 µM (inactive)

SMILES: CC[N+](CC)(CC#Cc1ccccc1)CC#Cc1ccccc1
- AC50: > 100 µM (inactive)
- AC50 [1]: > 100 µM

SMILES: Nc1ccccc1Sc1c[nH]c2ccccc12
- AC50: > 100 µM (inactive)
- AC50 [1]: > 100 µM

SMILES: Nc1nc(Nc2ccccc2F)nc(N2CCOCC2)c1[N+](=O)[O-]
- AC50: > 100 µM (inactive)

SMILES: COc1ccc(NC(=O)Nc2cccc3c2O[C@@H](CN(C)S(=O)(=O)c2ccc(Cl)cc2)[C@@H](C)CN([C@@H](C)CO)C3=O)cc1
- AC50: > 100 µM (inactive)

SMILES: CCc1nn2cc(C(=O)c3cc(Cl)ccc3O)cnc2c1-c1ccc(F)cc1
- AC50: > 100 µM (inactive)

SMILES: COc1ccc2nc(SCC(=O)Nc3ccccc3)[nH]c2c1
- AC50: > 100 µM (inactive)

SMILES: COC(=O)c1sc(C(C)(C)C)cc1CS(=O)(=O)c1ccc(Cl)cc1
- AC50: > 100 µM (inactive)
- AC50 [1]: > 100 µM

SMILES: CCCNC(=O)c1cc(C2CCCN(S(=O)(=O)c3cccc4cccnc34)C2)on1 (stereo not drawn)
- AC50: > 100 µM (inactive)

SMILES: C[C@@H]1CCCCO[C@@H](CN(C)C)[C@H](C)CN([C@@H](C)CO)C(=O)c2cc(NC(=O)Nc3cccc4ccccc34)ccc2O1
- AC50 [1]: > 100 µM

SMILES: CCN(CC)CCN(C(=O)c1ccc2c(c1)OCCO2)c1nc2c(Cl)cccc2s1
- AC50: > 100 µM (inactive)

SMILES: CN1OC[C@@H]2CN(C(=O)c3ccco3)[C@H](c3ccc(-c4ccc(C#N)cc4)cc3)C[C@@H]21
- AC50: > 100 µM (inactive)
- AC50 [1]: > 100 µM

SMILES: CCCN(Cc1ccco1)S(=O)(=O)c1ccc(OC)c(OC)c1
- AC50: > 100 µM (inactive)
- AC50 [1]: > 100 µM
- AC50 [2]: > 100 µM

SMILES: CCOCCCNC(=O)C(NC(=O)c1ccccc1O)c1ccc(C)cc1 (stereo not drawn)
- AC50 [1]: > 100 µM

SMILES: O=C(Cn1cc(COc2c(F)c(F)cc(F)c2F)nn1)c1ccc(O)cc1
- AC50: > 100 µM (inactive)
- AC50 [1]: > 100 µM

SMILES: O=C1OCCC1Sc1nc2ccccc2c(=O)n1Cc1ccccc1 (stereo not drawn)
- AC50: > 100 µM (inactive)

SMILES: Cc1ccc(NS(=O)(=O)c2ccc3c(c2)CCC(=O)N3)cc1C
- AC50: > 100 µM (inactive)
- AC50 [1]: > 100 µM

SMILES: CN(C)C(CNS(=O)(=O)c1cc([N+](=O)[O-])ccc1Cl)c1ccco1 (stereo not drawn)
- AC50: > 100 µM (inactive)

SMILES: CCOc1ccccc1C(=O)NCC(=O)OCCOc1cccc(Cl)c1
- AC50 [2]: > 100 µM

SMILES: CN(c1ccccc1)S(=O)(=O)c1cccc(NC(=O)CCNC(=O)c2ccc([N+](=O)[O-])cc2)c1
- AC50: > 100 µM (inactive)

SMILES: O=C(O)c1nn2c(C(F)(F)F)cc(-c3cccs3)nc2c1Cl
- AC50: > 100 µM (inactive)

SMILES: Nc1ccc(C(=O)OCCc2ccccc2)cc1
- AC50: > 100 µM (inactive)
- AC50 [2]: 45.9 µM

SMILES: CCc1cc2cc(OC)ccc2nc1SCC(=O)Nc1cc(OC)c(OC)cc1C(=O)O
- AC50: > 100 µM (inactive)
- AC50 [1]: > 100 µM

SMILES: CCOC(=O)c1c(NC(=O)CN2CCC(C)CC2)sc(C)c1C
- AC50: > 100 µM (inactive)

SMILES: CC(=O)NCCOc1nc(N2CCCCC2)nc(N2CCCCC2)n1
- AC50: > 100 µM (inactive)

SMILES: CS(=O)(=O)c1ccc(C(=O)Nc2nc(-c3ccco3)c(-c3ccco3)s2)cc1
- AC50: > 100 µM (inactive)
- AC50 [1]: > 100 µM
- AC50 [2]: > 100 µM

SMILES: COc1ccc(C(=O)Nc2ccc3nc(C)sc3c2)cc1OC
- AC50: > 100 µM (inactive)

SMILES: COc1ccc2c(c1)c1ncn(Cc3ccccn3)c(=O)c1n2C
- AC50: > 100 µM (inactive)
- AC50 [1]: > 100 µM

SMILES: COc1ccc(CC(=O)NC(C)c2ccc3ccccc3c2)cc1 (stereo not drawn)
- AC50 [2]: 5.4 µM

SMILES: COc1ccccc1NC(=O)COC(=O)Cc1c[nH]c2ccccc12
- AC50 [2]: > 100 µM

SMILES: COc1ccc(-n2ccnc2SCC(=O)NCc2ccccc2)c(OC)c1
- AC50: > 100 µM (inactive)
- AC50 [1]: > 100 µM

SMILES: COc1cccc(C(=O)Nc2nnc(S(=O)(=O)N(C)Cc3ccccc3)s2)c1
- AC50: > 100 µM (inactive)
- AC50 [1]: > 100 µM

SMILES: NC(=O)c1cc(NC(=O)c2cc(Br)c(Br)s2)cc(C(N)=O)c1
- AC50: > 100 µM (inactive)

SMILES: N#Cc1ccc(C(=O)Nc2ccn(-c3ccccc3)n2)cc1
- AC50: > 100 µM (inactive)

SMILES: COc1ccc(CN2C(=O)CC(Cc3cc(C)cc(C)c3)C2=O)cc1OC (stereo not drawn)
- AC50 [1]: > 100 µM

SMILES: CCOC(=O)c1cccc(OS(=O)(=O)Cc2ccccc2)c1
- AC50 [1]: > 100 µM

SMILES: O=C(Nc1cccc(S(=O)(=O)c2cccc(NC(=O)C3CC3)c2)c1)C1CC1
- AC50 [1]: > 100 µM

SMILES: C[C@@H]1CN([C@@H](C)CO)C(=O)CCCn2nncc2CO[C@H]1CN(C)C(=O)Nc1cccc(C(F)(F)F)c1
- AC50 [1]: > 100 µM

SMILES: CN(CCOc1ccccc1)C(=O)c1ccc(OC2CCN(C(=O)C3CC3)CC2)cc1
- AC50: > 100 µM (inactive)
- AC50 [1]: > 100 µM

SMILES: CC(=O)Nc1nc(C)c(-c2csc(Nc3ccccn3)n2)s1
- AC50: > 100 µM (inactive)

SMILES: O=C(O)c1cc(-c2ccc(Cl)s2)nc2ccccc12
- AC50: > 100 µM (inactive)

SMILES: Cc1cccc(-c2ccc([C@@H]3[C@@H](CO)N4CCCCN(S(=O)(=O)c5ccccc5C)C[C@@H]34)cc2)c1
- AC50 [1]: > 100 µM

SMILES: O=C(Nc1cc(S(=O)(=O)N2CCCCC2)ccc1N1CCCCC1)C1CC1
- AC50: > 100 µM (inactive)

SMILES: Cc1cc(OCC(=O)N(Cc2ccco2)C2CCS(=O)(=O)C2)ccc1Cl (stereo not drawn)
- AC50: > 100 µM (inactive)
- AC50 [1]: > 100 µM

SMILES: Cc1nn(CC(=O)OCCOc2ccc(Br)cc2)c(C)c1[N+](=O)[O-]
- AC50: > 100 µM (inactive)

SMILES: Cc1ncoc1C(=O)NCCC(c1ccccc1)c1ccccc1
- AC50: > 100 µM (inactive)

SMILES: Cc1cccc(OCCC(=O)Nc2ccc(F)c(F)c2)c1
- AC50: > 100 µM (inactive)

SMILES: CC(=O)N1CCN(c2nc(-c3cccs3)nc3ccccc23)CC1
- AC50: > 100 µM (inactive)

SMILES: CC1Cc2cc(-c3csc(NC(=O)Cc4ccccc4)n3)ccc2N1S(C)(=O)=O (stereo not drawn)
- AC50: > 100 µM (inactive)
- AC50 [1]: > 100 µM

SMILES: COc1ccccc1-c1cc2nc(NCCc3ccncc3)ccn2n1
- AC50: > 100 µM (inactive)
- AC50 [1]: > 100 µM

SMILES: Cc1ccccc1-n1c([C@@H]2C[C@H]2c2ccccc2)n[nH]c1=S
- AC50 [1]: > 100 µM

SMILES: O=C(NCCO)c1cc2c([nH]c3ccccc32)c(-c2ccccc2)n1
- AC50: > 100 µM (inactive)
- AC50 [1]: > 100 µM
- AC50 [2]: > 100 µM

SMILES: C=C1c2cc3c(cc2NC(=S)N1Cc1ccccc1)OCO3
- AC50 [1]: > 100 µM

SMILES: O=C(COC(=O)CCSc1ccc(F)cc1)NCc1ccc(F)cc1
- AC50: > 100 µM (inactive)
- AC50 [1]: > 100 µM

SMILES: COc1ccc(-c2csc(NC(=O)c3ccccc3S(C)(=O)=O)n2)cc1
- AC50: > 100 µM (inactive)
- AC50 [1]: > 100 µM
- AC50 [2]: > 100 µM

SMILES: CC1Cc2cc(S(=O)(=O)N3CCN(c4cccc(Cl)c4)CC3)ccc2N1C(=O)C1CC1 (stereo not drawn)
- AC50 [1]: > 100 µM

SMILES: CCOc1ccc2nc(N(CCN(C)C)C(=O)c3ccc4ccccc4c3)sc2c1
- AC50: > 100 µM (inactive)

SMILES: O=C(Nc1ccc(Br)cc1)c1cccnc1N1CCCCC1
- AC50: > 100 µM (inactive)
- AC50 [1]: > 100 µM

SMILES: COc1ccc(-c2noc(=O)n2Cc2ccccc2Cl)cc1
- AC50 [1]: > 100 µM

SMILES: O=C(C[C@H]1CC[C@H](NC(=O)Nc2ccccc2F)[C@H](CO)O1)NCc1ccc(-c2ccccc2)cc1
- AC50: > 100 µM (inactive)
- AC50 [1]: > 100 µM

SMILES: Cc1cccc(-c2ccc([C@H]3[C@H](CO)N4CCCCN(S(=O)(=O)c5ccccc5C)C[C@@H]34)cc2)c1
- AC50: > 100 µM (inactive)
- AC50 [1]: > 100 µM

SMILES: Cc1cc(C(=O)OCC(=O)Nc2cccc(S(N)(=O)=O)c2)c2ccccc2n1
- AC50: > 100 µM (inactive)

SMILES: CCOC(=O)c1cc(C)nc(N2CCCCC2)c1C#N
- AC50: > 100 µM (inactive)
- AC50 [1]: > 100 µM

SMILES: Cc1ccc(-c2nc(CN3CCCCC3c3cccc(F)c3)c(C)o2)o1 (stereo not drawn)
- AC50 [1]: > 100 µM

SMILES: COc1ccc(OC)c(-c2nn(-c3ccccc3)cc2C(=O)N2CCc3ccccc3C2)c1
- AC50 [1]: > 100 µM

SMILES: COCC(C)NC(=O)c1nn(Cc2ccccc2)c(=O)c2ccccc12 (stereo not drawn)
- AC50 [1]: > 100 µM

SMILES: O=c1[nH]c(C2CCCN(S(=O)(=O)c3ccccc3Cl)C2)nc2c1nnn2Cc1ccc2c(c1)OCCO2 (stereo not drawn)
- AC50: > 100 µM (inactive)
